Data as given in ChEMBL document CHEMBL1132186, “Structure-based design of selective inhibitors of dihydrofolate reductase: synthesis and antiparasitic activity of 2, 4-diaminopteridine analogues with a bridged diarylamine side chain” (J Med Chem, 1999).

Tests used:
Dihydrofolate reductase [1] = target: T1, Dihydrofolate reductase (Mycobacterium avium, UniProt O30463); assay: Inhibitory activity against DHFR (Dihydrofolate reductase) from Mycobacterium avium
T1 sequence (O30463 whole entry): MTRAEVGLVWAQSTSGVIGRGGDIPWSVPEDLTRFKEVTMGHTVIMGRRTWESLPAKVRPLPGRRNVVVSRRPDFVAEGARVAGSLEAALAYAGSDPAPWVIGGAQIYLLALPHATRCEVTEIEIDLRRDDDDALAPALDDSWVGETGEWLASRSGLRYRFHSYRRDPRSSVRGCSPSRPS

[2] = target: T2, Bifunctional dihydrofolate reductase-thymidylate synthase (Toxoplasma gondii, UniProt Q07422); assay: Inhibitory activity against DHFR (Dihydrofolate reductase) from Toxoplasma gondii.
T2 sequence (Q07422 whole entry): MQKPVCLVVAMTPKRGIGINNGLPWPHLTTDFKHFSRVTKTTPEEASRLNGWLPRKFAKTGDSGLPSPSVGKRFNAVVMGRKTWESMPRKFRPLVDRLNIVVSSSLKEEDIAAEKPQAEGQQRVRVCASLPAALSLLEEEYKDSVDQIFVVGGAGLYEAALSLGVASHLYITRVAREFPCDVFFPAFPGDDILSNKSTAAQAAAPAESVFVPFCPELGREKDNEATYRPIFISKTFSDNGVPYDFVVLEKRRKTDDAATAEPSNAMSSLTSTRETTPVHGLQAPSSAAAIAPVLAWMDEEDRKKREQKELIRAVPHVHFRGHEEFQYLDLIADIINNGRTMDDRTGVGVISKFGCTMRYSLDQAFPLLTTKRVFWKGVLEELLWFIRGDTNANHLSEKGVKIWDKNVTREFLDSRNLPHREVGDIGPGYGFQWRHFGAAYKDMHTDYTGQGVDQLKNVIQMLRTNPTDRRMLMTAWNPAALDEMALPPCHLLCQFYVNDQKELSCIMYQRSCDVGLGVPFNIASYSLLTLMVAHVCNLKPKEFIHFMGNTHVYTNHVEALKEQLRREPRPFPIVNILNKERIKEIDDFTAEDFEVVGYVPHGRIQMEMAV

[3] = Ratio of Dihydrofolate reductase inhibitory activity in rat to Mycobacterium avium
[4] = Ratio of Dihydrofolate reductase inhibitory activity in rat to Pneumocystis carinii
[5] = Ratio of Dihydrofolate reductase inhibitory activity in rat to Toxoplasma gondii
Dihydrofolate reductase [6] = target: T3, Dihydrofolate reductase (Rattus norvegicus, UniProt Q920D2); assay: Inhibitory activity against DHFR (Dihydrofolate reductase) from Rat liver
T3 sequence (Q920D2 whole entry): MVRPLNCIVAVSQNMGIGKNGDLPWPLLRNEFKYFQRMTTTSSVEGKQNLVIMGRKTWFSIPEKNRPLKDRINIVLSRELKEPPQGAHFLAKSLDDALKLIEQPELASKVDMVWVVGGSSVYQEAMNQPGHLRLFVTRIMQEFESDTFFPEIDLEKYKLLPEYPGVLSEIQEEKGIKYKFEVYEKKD

Dihydrofolate reductase [7] = target: T4, Dihydrofolate reductase (Pneumocystis carinii, UniProt P16184)
T4 sequence (P16184 whole entry): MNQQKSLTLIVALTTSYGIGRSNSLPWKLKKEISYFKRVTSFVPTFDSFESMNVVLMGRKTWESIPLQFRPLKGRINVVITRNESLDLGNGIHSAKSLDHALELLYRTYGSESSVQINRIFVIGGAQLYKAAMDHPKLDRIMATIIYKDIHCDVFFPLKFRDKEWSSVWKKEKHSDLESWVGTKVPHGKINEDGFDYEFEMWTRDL
Description: Inhibitory activity against DHFR (Dihydrofolate reductase) from Pneumocystis carinii.

Row | SMILES | IC50 (Dihydrofolate reductase [1]) [nM] | IC50 [2] [nM] | Selectivity ratio [3] | Selectivity ratio [4] | Selectivity ratio [5] | IC50 (Dihydrofolate reductase [6]) [nM] | IC50 (Dihydrofolate reductase [7]) [nM]
1 | Nc1nc(N)c2nc(CN3c4ccccc4C=Cc4ccccc43)cnc2n1 | 12 | 43 | 367 | 21 | 102 | – | –
2 | Nc1nc(N)c2nc(CN3c4ccccc4Cc4ccccc43)cnc2n1 | 17 | 29 | 1.6 | 0.64 | 0.93 | 27 | 42
3 | Nc1nc(N)c2nc(CN3c4ccccc4Sc4ccccc43)cnc2n1 | 29 | 110 | 6.9 | 1.7 | 1.8 | 200 | 120
4 | Nc1nc(N)c2nc(CN3c4ccccc4CCc4ccccc43)cnc2n1 | – | – | – | 3.6 | 5.6 | – | –
5 | Nc1nc(N)c2nc(Cn3c4ccccc4c4ccccc43)cnc2n1 | – | 12 | – | 0.55 | 4.6 | 55 | 100
6 | Nc1nc(N)c2nc(CN(c3ccccc3)c3ccccc3)cnc2n1 | 3700 | – | 1.1 | 0.82 | 3.1 | 4000 | –
7 | Nc1nc(N)c2nc(CN3c4ccccc4Oc4ccccc43)cnc2n1 | – | 2200 | – | – | – | 13000 | 3400
